Data as given in US6797497B1, “Biological process for the production of ortho-aminophenols from nitroaromatic compounds using mutase” (The United States of America as represented by the …, priority 2001, dated 2004).

Biological target: T1, nitrobenzene nitroreductase (Ectopseudomonas oleovorans, UniProt Q6DLR9)
T1 construct: The fractions containing nitrobenzene nitroreductase activity, which eluted in the linear gradient between 65 to 80 ml, were pooled; made in house; host or cells: Pseudomonas pseudoalcaligenes JS45, the native organism (not recombinant); Crude extract fractionated on Q-Sepharose Fast Flow
T1 sequence (Q6DLR9 2-227): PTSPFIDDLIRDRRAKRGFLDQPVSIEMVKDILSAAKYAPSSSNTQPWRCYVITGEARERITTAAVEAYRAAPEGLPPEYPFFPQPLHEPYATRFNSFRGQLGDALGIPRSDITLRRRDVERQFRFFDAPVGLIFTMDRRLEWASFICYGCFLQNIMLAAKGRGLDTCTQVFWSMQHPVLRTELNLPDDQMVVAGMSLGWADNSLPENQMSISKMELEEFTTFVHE
Assay: Nitrobenzene nitroreductase activity on nitroarene substrates (NADPH oxidation)
Type: biochemical, Pseudomonas pseudoalcaligenes strain JS45
Conditions: partially purified enzyme; compound as substrate
Protocol: The crude extract was loaded on a 100 ml Q-Sepharose Fast Flow column (Pharmacia, XK-26) previously equilibrated with 150 mM KCl in 20 mM phosphate buffer. Proteins were eluted with a step gradient that began with 100 ml buffer containing KCl (150 mM) and then a linear gradient of 150 to 300 mM KCl at a flow rate of 2.5 ml/min.
A high performance liquid chromatograph (HPLC) equipped with a diode array detector monitoring A210 (Hewlett-Packard, Model 1040M, Wilmington Del.) was used to identify and quantitate the nitroarenes, intermediates and corresponding aminophenols. […] For the whole cell transformation experiments, the nitroarenes and products were separated on an ABZ column (Supelco, Bellefonte, Pa.) using acetonitrile/water as solvent system. Capillary gas chromatography/mass spectral (GC/MS) analyses were performed splitless on a Hewlett-Packard GC (model 5890) equipped with a mass selective detector (model 5971) and a DB-5 column (J & W Scientific, Folsom, Calif., 30 m long×0.25 mm I.D.×1.0 μm film thickness). The aminophenol derivatized with BSTFA was analyzed by GC/MS using the temperature program beginning at 100° C. and increased 10° C./min to 280° C. The n-butylboronic acid derivative was analyzed using an initial temperature of 50° C. increasing 20° C./min to 340°C.

With `O=[N+]([O-])c1ccc(Oc2ccccc2)cc1` [4-nitrobiphenyl ether] the “rate of transformation by partially purified nitrobenzene nitroreductase” value was 8.1 μmol/min/mg protein.

With `O=[N+]([O-])c1ccccc1` [nitrobenzene] the “rate of transformation by partially purified nitrobenzene nitroreductase” value was 7.9 μmol/min/mg protein.
